The NIST ThermoML archive (doi:10.1021/je060271a)

Details: 303.15 K, Liquid, Vibrating tube method

CCCCCC(=O)OCC(COC(=O)CCCCC)(COC(=O)CCCCC)COC(=O)CCCCC [pentaerythritol tetrahexanoate]
Details	mass density [kg/m3]
20855 kPa	1001
20888 kPa	1001.2
20914 kPa	1001.2
20942 kPa	1001.1
20975 kPa	1001.1
21003 kPa	1001.2
21057 kPa	1001.1
21090 kPa	1001.2
21118 kPa	1001.3
21151 kPa	1001.3
21178 kPa	1001.2
21207 kPa	1001.4
21241 kPa	1001.3
21268 kPa	1001.5
21297 kPa	1001.3
21331 kPa	1001.4
21360 kPa	1001.3
21388 kPa	1001.4
21422 kPa	1001.4
21451 kPa	1001.6
21480 kPa	1001.5
21514 kPa	1001.5
21543 kPa	1001.5
21572 kPa	1001.4
21607 kPa	1001.6
21636 kPa	1001.5
21665 kPa	1001.5
21701 kPa	1001.5
21731 kPa	1001.6
21761 kPa	1001.6
21796 kPa	1001.7
21826 kPa	1001.7
21855 kPa	1001.7
21885 kPa	1001.6
21921 kPa	1001.7
21951 kPa	1001.7
21981 kPa	1001.8
22018 kPa	1001.8
22048 kPa	1001.8
22079 kPa	1001.8
22116 kPa	1001.9
22149 kPa	1001.8
22180 kPa	1001.9
22211 kPa	1002
22242 kPa	1001.8
22280 kPa	1001.9
22311 kPa	1002
22348 kPa	1002
22379 kPa	1002
22411 kPa	1002.1
22442 kPa	1002
22481 kPa	1002.1
22513 kPa	1002
22546 kPa	1002
22581 kPa	1002.1
22619 kPa	1002.2
22651 kPa	1002.1
22683 kPa	1002.2
22715 kPa	1002.2
22754 kPa	1002.2
22786 kPa	1002.3
22819 kPa	1002.3
22858 kPa	1002.4
22891 kPa	1002.2
22930 kPa	1002.3
22964 kPa	1002.4
22998 kPa	1002.3
23032 kPa	1002.4
23072 kPa	1002.4
23106 kPa	1002.3
23140 kPa	1002.4
23181 kPa	1002.4
23215 kPa	1002.5
23256 kPa	1002.4
23291 kPa	1002.4
23325 kPa	1002.5
23359 kPa	1002.5
23398 kPa	1002.5
24292 kPa	1003
24323 kPa	1003
24354 kPa	1003.1
24390 kPa	1002.9
24841 kPa	1003.3
24870 kPa	1003.4
24905 kPa	1003.4
24964 kPa	1003.4
25000 kPa	1003.5
25312 kPa	1003.6
25349 kPa	1003.7
25380 kPa	1003.6
25410 kPa	1003.8
25447 kPa	1003.7
25478 kPa	1003.7
25518 kPa	1003.7
25545 kPa	1003.9
25582 kPa	1003.9
25614 kPa	1003.7
25643 kPa	1003.8
25916 kPa	1003.9
25947 kPa	1003.9
25973 kPa	1004.1
26004 kPa	1004
26030 kPa	1004.2
26056 kPa	1004
26088 kPa	1004.1
26114 kPa	1004.1
26140 kPa	1004.1
26167 kPa	1004.2
26199 kPa	1004.1
26225 kPa	1004.2
26258 kPa	1004.3
26285 kPa	1004.1
26312 kPa	1004.2
26339 kPa	1004.2
26371 kPa	1004.2
26399 kPa	1004.2
26427 kPa	1004.2
26460 kPa	1004.3
26488 kPa	1004.3
26520 kPa	1004.3
26545 kPa	1004.4
26569 kPa	1004.3
26593 kPa	1004.4
26623 kPa	1004.3
26648 kPa	1004.2
26672 kPa	1004.4
26701 kPa	1004.4
26726 kPa	1004.3
26751 kPa	1004.5
26776 kPa	1004.4
26806 kPa	1004.4
26830 kPa	1004.4
26856 kPa	1004.5
26885 kPa	1004.5
26910 kPa	1004.5
26936 kPa	1004.7
26966 kPa	1004.6
26991 kPa	1004.4
27016 kPa	1004.6
27041 kPa	1004.7
27071 kPa	1004.6
27097 kPa	1004.6
27127 kPa	1004.5
27152 kPa	1004.5
27178 kPa	1004.7
27208 kPa	1004.8
27234 kPa	1004.7
27260 kPa	1004.7
27291 kPa	1004.6
27317 kPa	1004.6
27343 kPa	1004.7
27369 kPa	1004.9
27400 kPa	1004.9
27426 kPa	1004.8
27458 kPa	1004.7
27484 kPa	1004.8
27511 kPa	1004.8
27537 kPa	1004.8
27564 kPa	1004.8
27595 kPa	1004.9
27621 kPa	1004.9
27654 kPa	1005
27682 kPa	1004.9
27708 kPa	1005
27734 kPa	1004.9
27761 kPa	1005
27793 kPa	1005
27820 kPa	1005.1
27852 kPa	1005.1
27879 kPa	1005.1
27906 kPa	1005
27938 kPa	1005
27965 kPa	1005.2
27993 kPa	1005.2
28027 kPa	1005.2
28056 kPa	1005
28083 kPa	1005.1
28110 kPa	1005.1
28143 kPa	1005.1
28171 kPa	1005.3
28199 kPa	1005.3
28227 kPa	1005.2
28260 kPa	1005.2
28288 kPa	1005.2
28317 kPa	1005.3
28351 kPa	1005.4
28379 kPa	1005.3
28409 kPa	1005.3
28443 kPa	1005.3
28471 kPa	1005.3
28500 kPa	1005.4
28535 kPa	1005.4
28564 kPa	1005.4
28594 kPa	1005.5
28658 kPa	1005.5
28687 kPa	1005.5
28718 kPa	1005.5
28743 kPa	1005.5
28769 kPa	1005.6
28800 kPa	1005.6
28826 kPa	1005.5
28851 kPa	1005.6
28877 kPa	1005.6
28909 kPa	1005.6
29460 kPa	1006.1
29484 kPa	1005.9
29506 kPa	1005.9
29534 kPa	1006
29556 kPa	1006
29580 kPa	1006
29607 kPa	1006
29630 kPa	1006
29658 kPa	1006.1
29682 kPa	1006.1
29705 kPa	1006.1
29729 kPa	1006
29756 kPa	1006
29780 kPa	1006.1
29804 kPa	1006.2
29831 kPa	1006.2
29856 kPa	1006.1
29879 kPa	1006.1
29902 kPa	1006.2
29931 kPa	1006.1
29954 kPa	1006.1
29983 kPa	1006.2
30006 kPa	1006.3
30030 kPa	1006.3
30059 kPa	1006.2
30083 kPa	1006.3
30108 kPa	1006.3
30132 kPa	1006.3
30161 kPa	1006.4
30185 kPa	1006.4
30209 kPa	1006.2
30233 kPa	1006.3
30262 kPa	1006.3
30287 kPa	1006.3
31166 kPa	1006.8
31197 kPa	1006.8
31224 kPa	1006.8
31255 kPa	1006.9
31283 kPa	1006.9
31310 kPa	1006.9
31337 kPa	1006.9
31370 kPa	1007
31398 kPa	1007
31426 kPa	1007
31459 kPa	1006.9
31483 kPa	1007.1
31506 kPa	1007.1
31534 kPa	1006.9
31556 kPa	1007.1
31580 kPa	1007
31608 kPa	1007.1
31632 kPa	1007.1
31656 kPa	1007.2
31683 kPa	1007.1
31701 kPa	1007.2
31719 kPa	1007.1
31737 kPa	1007.2
31758 kPa	1007.1
31777 kPa	1007.2
31795 kPa	1007.2
31814 kPa	1007.4
31835 kPa	1007.2
31853 kPa	1007.2
31875 kPa	1007.2
31893 kPa	1007.3
31911 kPa	1007.3
31933 kPa	1007.2
31951 kPa	1007.3
31969 kPa	1007.3
31990 kPa	1007.5
32009 kPa	1007.4
32027 kPa	1007.3
32049 kPa	1007.3
32068 kPa	1007.3
32086 kPa	1007.4
32104 kPa	1007.4
32127 kPa	1007.5
32145 kPa	1007.4
32167 kPa	1007.4
32186 kPa	1007.4
32204 kPa	1007.4
32226 kPa	1007.5
32244 kPa	1007.4
32403 kPa	1007.6
32426 kPa	1007.6
